Biological target: T1, human 11β-HSD1 (Homo sapiens, UniProt P28845)
T1 construct: expressed in transfected cells; host or cells: CHO cells (microsomes)
Experiment: Inhibition of microsomal preparation of 11β-HSD1 (SPA, Biological Test Example 1)
Format: biochemical
Conditions: for inhibition at 0.111 µM: 111 nM; for IC50: microsomes from CHO cells overexpressing human 11β-HSD1, read-out: IC50 Range; for inhibition at 0.1 µM: 100 nM
Procedure: The inhibition of microsomal preparation of 11β-HSD1 by compounds of the invention was measured essentially as previously described (K. Solly, S. S. Mundt, H. J. Zokian, G. J. Ding, A. Hermanowski-Vosatka, B. Strulovici, and W. Zheng, High-Throughput Screening of 11-Beta-Hydroxysteroid Dehydrogenase Type 1 in Scintillation Proximity Assay Format. Assay Drug Dev Technol 3 (2005) 377-384). All reactions were carried out at rt in 96 well clear flexible PET Microbeta plates (PerkinElmer). The assay begins by dispensing 49 μl of substrate solution (50 mM HEPES, pH 7.4, 100 mM KCl, 5 mM NaCl, 2 mM MgCl2, 2 mM NADPH and 160 nM [^3H]cortisone (1 Ci/mmol)) and mixing in 1 μL of the test compounds in DMSO previously diluted in half-log increments (8 points) starting at 0.1 mM. After a 10 minute pre-incubation, 50 μL of enzyme solution containing microsomes isolated from CHO cells overexpressing human 11β-HSD1 (10-20 μg/ml of total protein) was added, and the plates were incubated for 90 minutes at rt. The reaction was stopped by adding 50 μl of the SPA beads suspension containing 10 μM 18β-glycyrrhetinic acid, 5 mg/ml protein A coated YSi SPA beads (GE Healthcare) and 3.3 μg/ml of anti-cortisol antibody (East Coast Biologics) in Superblock buffer (Bio-Rad). The plates were shaken for 120 minutes at rt, and the SPA signal corresponding to [^3H]cortisol was measured on a Microbeta plate reader.

T1 sequence (P28845 whole entry): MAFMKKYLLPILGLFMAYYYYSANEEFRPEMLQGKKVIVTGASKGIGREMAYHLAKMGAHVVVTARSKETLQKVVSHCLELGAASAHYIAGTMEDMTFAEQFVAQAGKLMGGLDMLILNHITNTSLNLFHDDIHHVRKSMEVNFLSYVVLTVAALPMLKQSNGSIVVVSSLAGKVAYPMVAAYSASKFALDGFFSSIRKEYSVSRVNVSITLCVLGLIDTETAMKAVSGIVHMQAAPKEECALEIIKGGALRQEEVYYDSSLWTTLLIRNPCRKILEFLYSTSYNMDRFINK

Row | SMILES | inhibition at 0.111 µM | IC50 | inhibition at 0.1 µM
1 | O=C(O)CC1CC2(CCN(C(=O)NCc3ccccc3N3CCCC3)CC2)c2c(Br)cccc21 (centres unmarked) [EXAMPLE 96, 2-(7-bromo-1′-(2-(pyrrolidin-1-yl)benzylcarbamoyl)-2,3-dihydrospiro[indene-1,4′-piperidine]-3-yl)acetic acid] | 48.9% | 100 to 1000 nM | 
2 | CN(Cc1ccccc1F)C(=O)N1CCC2(CC1)CC(CC(=O)O)c1cccc(Br)c12 (centres unmarked) [EXAMPLE 104, 2-(7-bromo-1′((2-fluorobenzyl)(methyl)carbamoyl)-2,3-dihydrospiro[indene-1,4′-piperidine]-3-yl)acetic acid] | 88.7% | < 100 nM | 
3 | O=C(O)CC1CC2(CCN(C(=O)CCc3ccccc3Cl)CC2)c2c(Cl)cccc21 (centres unmarked) [EXAMPLE 74, 2-(7-chloro-1′-(3-(2-chlorophenyl)propanoyl)-2,3-dihydrospiro[indene-1,4′-piperidine]-3-yl)acetic acid] | 89.5% | < 100 nM | 
4 | O=C(O)CC1CC2(CCN(C(=O)CCc3ccc(Cl)cc3Cl)CC2)c2c(Cl)cccc21 (centres unmarked) [EXAMPLE 75, 2-(7-chloro-1′-(3-(2,4-dichlorophenyl)propanoyl)-2,3-dihydrospiro[indene-1,4′-piperidine]-3-yl)acetic acid] | 52.2% | < 100 nM | 
5 | O=C(/C=C/c1ccccc1C(F)(F)F)N1CCC2(CC1)CC(O)c1cccc(Br)c12 (racemic) [EXAMPLE 16, (±)-(E)-1-(7-bromo-3-hydroxy-2,3-dihydrospiro[indene-1,4′-piperidine]-1′-yl)-3-(2-(trifluoromethyl)phenyl)prop-2-en-1-one] | 98.6% | < 100 nM | 95.3%
6 | Cc1ccccc1CNC(=O)N1CCC2(CC1)CC(CC(=O)O)c1cccc(Br)c12 (centres unmarked) [EXAMPLE 87, 2-(7-bromo-1′-(2-methylbenzylcarbamoyl)-2,3-dihydrospiro[indene-1,4′-piperidine]-3-yl)acetic acid] | 57.2% | < 100 nM | 
7 | NC1CC2(CCN(C(=O)Cc3ccccc3C(F)(F)F)CC2)c2c(Br)cccc21 (racemic) [EXAMPLE 46, (±)-1-(3-amino-7-bromo-2,3-dihydrospiro[indene-1,4′-piperidine]-1′-yl)-2-(2-(trifluoromethyl)phenyl)ethanone] | 78.6% | < 100 nM | 
8 | O=C1CC2(CCN(C(=O)OCc3ccccc3C(F)(F)F)CC2)c2c(Br)cccc21 [EXAMPLE 105, 2-(trifluoromethyl)benzyl 7-bromo-3-oxo-2,3-dihydrospiro[indene-1,4′-piperidine]-1′-carboxylate] | 82.3% | < 100 nM | 

The remaining lines, values ahead:

Row | inhibition at 0.111 µM | IC50 | inhibition at 0.1 µM | SMILES
9 | 75.7% | < 100 nM |  | O=C(O)CC1CC2(CCN(C(=O)NCc3ccccc3C(F)(F)F)CC2)c2c(Br)cccc21 (centres unmarked) [EXAMPLE 94, 2-(7-bromo-1′-(2-(trifluoromethyl)benzylcarbamoyl)-2,3-dihydrospiro[indene-1,4′-piperidine]-3-yl)acetic acid]
10 | 93.8% | < 100 nM | 93.5% | CN1C(=O)C2(CCN(C(=O)CCc3ccccc3C(F)(F)F)CC2)c2ccccc21 [EXAMPLE 69, 1-methyl-1′-(3-(2-(trifluoromethyl)phenyl)propanoyl)spiro[indoline-3,4′-piperidin]-2-one]
11 | 92.6% | < 100 nM |  | CS(=O)(=O)N1Cc2ccccc2C2(CCN(C(=O)CCc3ccccc3C(F)(F)F)CC2)C1 [EXAMPLE 60, 1-(2-(methylsulfonyl)-2,3-dihydro-1H-spiro[isoquinoline-4,4′-piperidine]-1′-yl)-3-(2-(trifluoromethyl)phenyl)propan-1-one]
12 | 79.3% | < 100 nM |  | O=C1Cc2ccccc2C2(CCN(C(=O)/C=C/c3ccccc3C(F)(F)F)CC2)N1 [EXAMPLE 42, (E)-1′-(3-(2-(trifluoromethyl)phenyl)acryloyl)-2H-spiro[isoquinoline-1,4′-piperidin]-3(4H)-one]

Source: patent US8383629B2, “Inhibitors of 11β-hydroxysteroid dehydrogenase type 1” (Vitae Pharmaceuticals, Inc., priority 2008, dated 2013)
